# Where “and” joins values, the source holds several entries; their conditions need not be identical. Equal entries are not always repeated. Where two headings read alike, the source gives them in different places.
# Experiments:
# HeLa cells = assay: Activity on HeLa cells cloning efficiency in vitro; assay type: cell-based; conditions: for ID50 / IC50: several values = separate experiments; for ID50: 1440 min; for activity at 0.1 µg/mL: dose 100 ng/ml; for activity on HeLa cells cloning efficiency in vitro (in words): compared with daunorubicin
# Text: Activity on HeLa cells cloning efficiency in vitro. Treatment
# P388 ascitic leukemia = assay: Activity against P388 ascitic leukemia; assay type: in vivo, mice; conditions: for T/C (median survival time of treated mice/median survival time of controls) / Toxicity deaths: day 1 after tumor inoculation
# Experimental: As regards the in vivo tests, preliminary experiments were carried out on P388 ascitic leukemia.
# Activity against P388 ascitic leukemia. Treatment i.p. on day
# 1 after tumor inoculation.
# ^a Median survival time of treated mice/median survival time of […]
# [1] = HeLa cloning efficiency, treatment for 24 hours
# [2] = 2.9 mg/kg i.p., data of 3 experiments
# [3] = Homo sapiens, HeLa, 24 h, HeLa cloning efficiency, treatment for 24 hours, read-out: ID50 (the source's name)
# [4] = Homo sapiens, HeLa, 24 h, 24 hours, read-out: % of controls
SMILES,ID50 (HeLa cells; [1]) [µg/mL],T/C (median survival time of treated mice/median survival time of controls) (P388 ascitic leukemia; 4.4 mg/kg i.p.),Toxicity deaths (P388 ascitic leukemia; 4.4 mg/kg i.p.),T/C (median survival time of treated mice/median survival time of controls) (P388 ascitic leukemia; 6.6 mg/kg i.p.),Toxicity deaths (P388 ascitic leukemia; 6.6 mg/kg i.p.),IC50 (HeLa cells; [3]) [µg/mL],activity at 0.1 µg/mL (HeLa cells; [4]) [%],activity on HeLa cells cloning efficiency in vitro (in words) (HeLa cells),T/C (median survival time of treated mice/median survival time of controls) (P388 ascitic leukemia; 100 mg/kg i.p.) [%],Toxicity deaths (P388 ascitic leukemia; 100 mg/kg i.p.),T/C (median survival time of treated mice/median survival time of controls) (P388 ascitic leukemia; 200 mg/kg i.p.) [%],Toxicity deaths (P388 ascitic leukemia; 200 mg/kg i.p.),further results
"COc1cccc2c1C(=O)c1c(O)c3c(c(O)c1C2=O)C[C@@](O)(C(C)=O)C[C@@H]3O[C@H]1C[C@H](N)[C@H](O)[C@H](C)O1 [Daunorubicin, reference compound]",0.0083,170% and 168% and 185%,1/10 and 0/6 and 0/10,155% and 168% and 190%,6/10 and 5/5 and 4/10,,,,,,,,"activity at 0.00625 µg/mL (HeLa cells; Homo sapiens, HeLa, 24 h, read-out: % of controls, dose 6.25 ng/ml, 24 hours, data of 3 experiments): 66%; IC50 (HeLa cells; Homo sapiens, HeLa, 24 h, read-out: ID50, HeLa cloning efficiency, treatment for 24 hours): 0.009 µg/mL; % of controls (HeLa cells; dose 3.12 ng/ml, 24 hours, data of 3 experiments): 105% and 100% and 70%; % of controls (HeLa cells; dose 6.25 ng/ml, 24 hours, data of 3 experiments): 69% and 57%; T/C (median survival time of treated mice/median survival time of controls) (P388 ascitic leukemia; [2]): 170% and 172% and 180%; Toxicity deaths (P388 ascitic leukemia; [2]): 0/10 and 0/6"
"COc1cccc2c1C(=O)c1c(O)c3c(c(O)c1C2=O)CC(O)(C(C)=O)CC3OC1CC(N)C(C)C(C)O1 (stereo not drawn) [V-B, 4'-deoxy-4'-epi-C-methyl-daunorubicin]",,130%,0/10,140%,0/10,0.0077,0,maintained a high cytotoxic activity,,,,,"activity at 0.0062 µg/mL (HeLa cells; Homo sapiens, HeLa, 24 h, dose 6.2 ng/ml, 24 hours, read-out: % of controls): 54%; activity at 0.025 µg/mL (HeLa cells; Homo sapiens, HeLa, 24 h, dose 25 ng/ml, 24 hours, read-out: % of controls): 4%; T/C (median survival time of treated mice/median survival time of controls) (P388 ascitic leukemia; 10.0 mg/kg i.p.): 140%; Toxicity deaths (P388 ascitic leukemia; 10.0 mg/kg i.p.): 0/9"
"COc1cccc2c1C(=O)c1c(O)c3c(c(O)c1C2=O)C[C@@](O)(C(C)=O)C[C@@H]3O[C@H]1C[C@H](N)[C@@](O)(CN)[C@H](C)O1 [V-C, 4'-C-aminomethyl-daunorubicin]",,,,,,1,143,markedly less active than daunorubicin,172,0/5,204,0/4,"activity at 0.4 µg/mL (HeLa cells; Homo sapiens, HeLa, 24 h, dose 400 ng/ml, 24 hours, read-out: % of controls): 141%; activity at 1.6 µg/mL (HeLa cells; Homo sapiens, HeLa, 24 h, dose 1600 ng/ml, 24 hours, read-out: % of controls): 3.8%; T/C (median survival time of treated mice/median survival time of controls) (P388 ascitic leukemia; 50 mg/kg i.p.): 181%; Toxicity deaths (P388 ascitic leukemia; 50 mg/kg i.p.): 0/6; antitumor activity compared with daunorubicin (in words) (P388 ascitic leukemia; at a dose of 200 mg/kg): more active than daunorubicin"
"C=C1[C@@H](NC(=O)C(F)(F)F)C[C@H](O[C@H]2C[C@](O)(C(C)=O)Cc3c(O)c4c(c(O)c32)C(=O)c2c(OC)cccc2C4=O)O[C@H]1C [IV-A, 4'-deoxy-4'-C-methylene-N-trifluoroacetyl-daunorubicin]",1.3,,,,,1.6,,markedly less active than daunorubicin,110,0/5,110,0/5,"activity at 0.8 µg/mL (HeLa cells; Homo sapiens, HeLa, 24 h, dose 800 ng/ml, 24 hours, read-out: % of controls): 115%; activity at 3.2 µg/mL (HeLa cells; Homo sapiens, HeLa, 24 h, dose 3200 ng/ml, 24 hours, read-out: % of controls): 7%; % of controls (HeLa cells; dose 800 ng/ml, 24 hours): 116%; T/C (median survival time of treated mice/median survival time of controls) (P388 ascitic leukemia; 400 mg/kg i.p.): 130%; Toxicity deaths (P388 ascitic leukemia; 400 mg/kg i.p.): 0/3"

# From US4393052A, “Antitumor anthracycline glycosides, their preparation, intermediates therefor, and compositions and use thereof” (priority 1980, dated 1983)
